In ChEMBL document CHEMBL5385847, “Design, synthesis and biological evaluation of a new class of 7H-pyrrolo[2,3-d]pyrimidine derivatives as Mps1 inhibitors for the treatment of breast cancer” (Eur J Med Chem, 2023):
pIC50: −log10 of the molar value. Active and inactive are the calls of the source. The calls are words filed in the database; no cut-off is given here.

Experiments:
[1] = Toxicity in BALB/C mouse xenografted with mouse 4T1-Luc cells assessed as histological change in kidneys at 30 to 60 mg/kg, po qd treated for 15 days by H and E staining based analysis; assay type: organism-based; conditions: in vivo, 360 h, dose 30-60 mg/kg, time 15 day
[2] = Toxicity in BALB/C mouse xenografted with mouse 4T1-Luc cells assessed as histological change in heart at 30 to 60 mg/kg, po qd treated for 15 days by H and E staining based analysis; assay type: organism-based; conditions: in vivo, 360 h, dose 30-60 mg/kg, time 15 day
4T1-Luc [3] = assay: Antitumor activity against mouse 4T1-Luc cells xenografted in BALB/C mouse assessed as delay in tumor growth at 30 to 60 mg/kg, po qd treated for 15 days; assay type: functional, organism-based; conditions: dose 30-60 mg/kg, time 15.0 day
4T1-Luc [4] = assay: Antitumor activity against mouse 4T1-Luc cells xenografted in BALB/C mouse assessed as reduction in tumor growth at 30 to 60 mg/kg, po qd measured after 10 days by IVIS analysis; assay type: functional, organism-based; conditions: dose 30-60 mg/kg, time 10.0 day
[5] = Antitumor activity against mouse 4T1-Luc cells xenografted in BALB/C mouse assessed as reduction in mean tumor weight at 30 mg/kg, po qd treated for 15 days (reference value: 3.56 g); assay type: functional; conditions: time 15 day
MCF7 [6] = assay: Induction of apoptosis in human MCF7 cells assessed as increase in cleaved caspase-3 level upto 3 uM incubated for 48 hrs by Western blot analysis; assay type: functional, cell-based
4T1 [7] = assay: Induction of apoptosis in 4T1 cells assessed as late apoptotic cells at 5 uM incubated for 48 hrs by Annexin V-FITC/PI staining based flow cytometry (reference value: 1.73 %); assay type: functional, Mus musculus
4T1 [8] = assay: Induction of apoptosis in 4T1 cells assessed as early apoptotic cells at 5 uM incubated for 48 hrs by Annexin V-FITC/PI staining based flow cytometry (reference value: 0.32 %); assay type: functional, Mus musculus
4T1 [9] = assay: Induction of apoptosis in 4T1 cells assessed as necrotic cells at 1 uM incubated for 48 hrs by Annexin V-FITC/PI staining based flow cytometry (reference value: 0.20 %); assay type: functional, Mus musculus
4T1 [10] = assay: Induction of apoptosis in 4T1 cells assessed as necrotic cells at 0.5 uM incubated for 48 hrs by Annexin V-FITC/PI staining based flow cytometry (reference value: 0.20 %); assay type: functional, Mus musculus
MCF7 [11] = assay: Induction of apoptosis in human MCF7 cells assessed as necrotic cells at 5 uM incubated for 48 hrs by Annexin V-FITC/PI staining based flow cytometry (reference value: 0.03 %); assay type: functional
MCF7 [12] = assay: Induction of apoptosis in human MCF7 cells assessed as late apoptotic cells at 5 uM incubated for 48 hrs by Annexin V-FITC/PI staining based flow cytometry (reference value: 0.63 %); assay type: functional
MCF7 [13] = assay: Induction of apoptosis in human MCF7 cells assessed as early apoptotic cells at 5 uM incubated for 48 hrs by Annexin V-FITC/PI staining based flow cytometry (reference value: 1.19 %); assay type: functional
MCF7 [14] = assay: Induction of apoptosis in human MCF7 cells assessed as necrotic cells at 1 uM incubated for 48 hrs by Annexin V-FITC/PI staining based flow cytometry (reference value: 0.03 %); assay type: functional
MCF7 [15] = assay: Induction of apoptosis in human MCF7 cells assessed as late apoptotic cells at 1 uM incubated for 48 hrs by Annexin V-FITC/PI staining based flow cytometry (reference value: 0.63 %); assay type: functional
MCF7 [16] = assay: Induction of apoptosis in human MCF7 cells assessed as necrotic cells at 0.5 uM incubated for 48 hrs by Annexin V-FITC/PI staining based flow cytometry (reference value: 0.03 %); assay type: functional
MCF7 [17] = assay: Induction of apoptosis in human MCF7 cells assessed as early apoptotic cells at 0.5 uM incubated for 48 hrs by Annexin V-FITC/PI staining based flow cytometry (reference value: 1.19 %); assay type: functional
HEK293 = assay: Antiproliferative activity against HEK293 cells assessed as inhibition of cell viability by MTT assay; assay type: toxicity, cell-based; conditions: human
L02 = assay: Antiproliferative activity against human L02 cells assessed as inhibition of cell viability by MTT assay; assay type: toxicity, cell-based
HCT-116 [18] = assay: Antiproliferative activity against human HCT-116 cells assessed as inhibition of cell viability upto 10 uM incubated for 72 hrs by MTT assay; assay type: functional, cell-based
OVCAR-3 = assay: Antiproliferative activity against human OVCAR-3 cells assessed as inhibition of cell viability upto 10 uM incubated for 72 hrs by MTT assay; assay type: functional, cell-based
HEY [19] = assay: Antiproliferative activity against human HEY cells assessed as inhibition of cell viability upto 10 uM incubated for 72 hrs by MTT assay; assay type: functional, cell-based
4T1 [20] = assay: Antiproliferative activity against 4T1 cells assessed as inhibition of cell viability upto 10 uM by MTT assay; assay type: functional, cell-based; conditions: Mus musculus, time 24-72 hrs, TDE = time-dependent effect
MDA-MB-231 [21] = assay: Antiproliferative activity against human MDA-MB-231 cells assessed as inhibition of cell viability upto 10 uM incubated for 72 hrs by MTT assay; assay type: functional, cell-based
HCT-116 [22] = assay: Antiproliferative activity against human HCT-116 cells assessed as inhibition of cell viability by MTT assay; assay type: functional, cell-based
ES-2 = assay: Antiproliferative activity against human ES2 cells assessed as inhibition of cell viability by MTT assay; assay type: functional, cell-based
HEY [23] = assay: Antiproliferative activity against human HEY cells assessed as inhibition of cell viability by MTT assay; assay type: functional, cell-based
4T1 [24] = assay: Antiproliferative activity against 4T1 cells assessed as inhibition of cell viability by MTT assay; assay type: functional, cell-based; conditions: Mus musculus
MDA-MB-231 [25] = assay: Antiproliferative activity against human MDA-MB-231 cells assessed as inhibition of cell viability by MTT assay; assay type: functional, cell-based
[26] = molecular target: Proto-oncogene tyrosine-protein kinase Src (Homo sapiens) (UniProt P12931); assay: Inhibition of human cSRC at 0.1 uM by KINOMEscan assay relative to control
[27] = molecular target: Tyrosine-protein kinase JAK2 (Homo sapiens) (UniProt O60674); assay: Inhibition of human JAK2 at 0.1 uM by KINOMEscan assay relative to control
[28] = molecular target: Hepatocyte growth factor receptor (Homo sapiens) (UniProt P08581); assay: Inhibition of human Met at 0.1 uM by KINOMEscan assay relative to control
[29] = molecular target: Insulin-like growth factor 1 receptor (Homo sapiens) (UniProt P08069); assay: Inhibition of human IGF-1R at 0.1 uM by KINOMEscan assay relative to control
[30] = molecular target: Angiopoietin-1 receptor (Homo sapiens) (UniProt Q02763); assay: Inhibition of human Tie2 at 1 uM by KINOMEscan assay relative to control
[31] = molecular target: Tyrosine-protein kinase Yes (Homo sapiens) (UniProt P07947); assay: Inhibition of human Yes at 1 uM by KINOMEscan assay relative to control
[32] = molecular target: Insulin-like growth factor 1 receptor (Homo sapiens) (UniProt P08069); assay: Inhibition of human IGF-1R at 1 uM by KINOMEscan assay relative to control
[33] = molecular target: Cytoplasmic tyrosine-protein kinase BMX (Homo sapiens) (UniProt P51813); assay: Inhibition of human Bmx at 1 uM by KINOMEscan assay relative to control
Sequence of Cytoplasmic tyrosine-protein kinase BMX (Homo sapiens) (P51813 whole entry): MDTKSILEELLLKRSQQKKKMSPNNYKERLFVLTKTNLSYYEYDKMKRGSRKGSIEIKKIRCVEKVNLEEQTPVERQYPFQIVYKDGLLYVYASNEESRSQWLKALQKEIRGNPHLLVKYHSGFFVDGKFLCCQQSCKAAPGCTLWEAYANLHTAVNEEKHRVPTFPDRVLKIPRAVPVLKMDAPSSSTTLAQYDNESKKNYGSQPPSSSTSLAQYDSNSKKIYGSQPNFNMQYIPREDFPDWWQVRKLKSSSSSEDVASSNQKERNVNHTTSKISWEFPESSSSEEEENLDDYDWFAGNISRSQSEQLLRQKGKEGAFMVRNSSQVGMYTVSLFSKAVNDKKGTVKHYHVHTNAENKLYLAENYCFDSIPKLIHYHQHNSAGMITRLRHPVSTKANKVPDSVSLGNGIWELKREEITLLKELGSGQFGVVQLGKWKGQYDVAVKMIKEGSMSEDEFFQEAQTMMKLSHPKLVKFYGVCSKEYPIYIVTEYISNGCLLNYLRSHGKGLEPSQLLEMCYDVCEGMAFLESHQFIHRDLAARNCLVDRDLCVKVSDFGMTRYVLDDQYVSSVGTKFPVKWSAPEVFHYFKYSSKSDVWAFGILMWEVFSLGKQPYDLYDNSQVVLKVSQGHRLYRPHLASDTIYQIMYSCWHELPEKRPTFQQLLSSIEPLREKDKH

Sequence of Insulin-like growth factor 1 receptor (Homo sapiens) (P08069 31-736 limits assumed): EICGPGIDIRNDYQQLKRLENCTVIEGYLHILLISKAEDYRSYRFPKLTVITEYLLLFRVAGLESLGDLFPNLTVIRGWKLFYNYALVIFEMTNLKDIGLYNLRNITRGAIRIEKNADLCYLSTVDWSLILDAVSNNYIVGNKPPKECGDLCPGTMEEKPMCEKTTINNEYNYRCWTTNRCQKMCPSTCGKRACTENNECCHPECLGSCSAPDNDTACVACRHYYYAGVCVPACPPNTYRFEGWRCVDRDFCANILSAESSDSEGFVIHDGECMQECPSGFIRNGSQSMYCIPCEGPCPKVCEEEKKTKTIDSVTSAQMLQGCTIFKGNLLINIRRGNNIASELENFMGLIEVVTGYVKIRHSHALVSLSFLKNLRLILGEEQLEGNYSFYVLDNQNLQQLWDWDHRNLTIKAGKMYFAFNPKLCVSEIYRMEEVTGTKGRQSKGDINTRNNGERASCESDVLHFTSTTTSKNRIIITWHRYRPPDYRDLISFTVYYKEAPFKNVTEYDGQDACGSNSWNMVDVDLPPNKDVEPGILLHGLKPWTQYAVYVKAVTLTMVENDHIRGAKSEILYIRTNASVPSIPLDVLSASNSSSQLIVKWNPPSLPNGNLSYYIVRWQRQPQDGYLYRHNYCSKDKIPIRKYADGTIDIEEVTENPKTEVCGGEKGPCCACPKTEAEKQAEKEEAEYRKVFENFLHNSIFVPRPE
Sequence of Insulin-like growth factor 1 receptor (Homo sapiens) (P08069 741-1367 limits assumed): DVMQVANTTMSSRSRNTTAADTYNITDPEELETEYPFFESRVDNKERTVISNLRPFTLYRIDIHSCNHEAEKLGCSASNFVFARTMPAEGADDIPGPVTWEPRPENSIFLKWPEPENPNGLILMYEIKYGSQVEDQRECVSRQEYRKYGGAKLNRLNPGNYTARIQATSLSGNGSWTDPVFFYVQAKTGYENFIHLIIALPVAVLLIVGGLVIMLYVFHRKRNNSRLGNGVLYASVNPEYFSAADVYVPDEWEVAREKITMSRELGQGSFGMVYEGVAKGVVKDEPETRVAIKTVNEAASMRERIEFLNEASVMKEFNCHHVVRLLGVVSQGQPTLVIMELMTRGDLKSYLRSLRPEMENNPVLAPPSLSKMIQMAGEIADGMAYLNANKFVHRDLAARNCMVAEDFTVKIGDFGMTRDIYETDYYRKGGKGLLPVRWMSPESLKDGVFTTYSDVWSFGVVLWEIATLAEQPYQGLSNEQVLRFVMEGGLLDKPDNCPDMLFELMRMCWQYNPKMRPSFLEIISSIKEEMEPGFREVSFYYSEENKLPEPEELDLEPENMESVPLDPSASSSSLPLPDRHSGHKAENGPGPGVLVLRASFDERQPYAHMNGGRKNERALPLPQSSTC
Sequence of Angiopoietin-1 receptor (Homo sapiens) (Q02763 whole entry): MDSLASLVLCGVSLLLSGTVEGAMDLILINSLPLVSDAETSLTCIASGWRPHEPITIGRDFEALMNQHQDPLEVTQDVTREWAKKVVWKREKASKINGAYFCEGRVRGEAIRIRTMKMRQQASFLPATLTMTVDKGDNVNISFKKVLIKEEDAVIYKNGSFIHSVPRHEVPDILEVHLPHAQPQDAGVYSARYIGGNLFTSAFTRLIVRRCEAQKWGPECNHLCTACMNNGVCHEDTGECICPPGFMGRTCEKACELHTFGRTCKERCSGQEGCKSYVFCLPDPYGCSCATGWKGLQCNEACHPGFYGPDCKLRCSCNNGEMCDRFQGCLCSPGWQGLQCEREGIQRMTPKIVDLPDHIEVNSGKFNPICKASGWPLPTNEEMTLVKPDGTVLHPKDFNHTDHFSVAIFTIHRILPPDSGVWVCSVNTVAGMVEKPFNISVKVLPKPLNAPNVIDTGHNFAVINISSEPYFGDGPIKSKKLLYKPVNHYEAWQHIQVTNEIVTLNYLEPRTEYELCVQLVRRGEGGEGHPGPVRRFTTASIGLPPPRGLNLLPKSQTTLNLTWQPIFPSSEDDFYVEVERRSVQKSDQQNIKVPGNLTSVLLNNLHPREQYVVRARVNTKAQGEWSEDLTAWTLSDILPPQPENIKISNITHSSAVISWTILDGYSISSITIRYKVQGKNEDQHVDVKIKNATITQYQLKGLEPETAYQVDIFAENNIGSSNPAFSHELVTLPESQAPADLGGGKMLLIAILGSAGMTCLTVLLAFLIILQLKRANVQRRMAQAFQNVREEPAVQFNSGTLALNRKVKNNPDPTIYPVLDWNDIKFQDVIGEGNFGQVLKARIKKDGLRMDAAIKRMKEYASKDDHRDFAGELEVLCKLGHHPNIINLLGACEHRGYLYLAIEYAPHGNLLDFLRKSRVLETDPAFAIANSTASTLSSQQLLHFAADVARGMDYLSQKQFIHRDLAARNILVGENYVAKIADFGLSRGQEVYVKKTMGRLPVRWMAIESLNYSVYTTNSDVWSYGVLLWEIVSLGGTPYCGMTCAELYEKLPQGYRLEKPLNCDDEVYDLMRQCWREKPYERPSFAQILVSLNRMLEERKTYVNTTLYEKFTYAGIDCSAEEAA
Sequence of Proto-oncogene tyrosine-protein kinase Src (Homo sapiens) (P12931 2-536 limits assumed): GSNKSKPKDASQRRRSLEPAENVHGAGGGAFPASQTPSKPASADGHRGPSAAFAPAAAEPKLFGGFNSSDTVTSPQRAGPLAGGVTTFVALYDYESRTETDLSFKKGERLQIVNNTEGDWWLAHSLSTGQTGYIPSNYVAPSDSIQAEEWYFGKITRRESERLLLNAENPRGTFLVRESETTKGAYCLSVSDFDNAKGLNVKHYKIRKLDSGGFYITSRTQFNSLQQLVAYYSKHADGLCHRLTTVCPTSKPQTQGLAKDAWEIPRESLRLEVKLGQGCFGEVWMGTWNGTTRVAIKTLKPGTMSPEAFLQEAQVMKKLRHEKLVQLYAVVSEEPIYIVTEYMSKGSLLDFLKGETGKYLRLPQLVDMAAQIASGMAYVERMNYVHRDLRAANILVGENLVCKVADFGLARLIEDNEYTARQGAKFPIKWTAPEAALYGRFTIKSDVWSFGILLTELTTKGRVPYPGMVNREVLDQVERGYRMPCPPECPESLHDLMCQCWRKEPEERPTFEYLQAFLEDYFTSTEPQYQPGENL
Sequence of Hepatocyte growth factor receptor (Homo sapiens) (P08581 whole entry): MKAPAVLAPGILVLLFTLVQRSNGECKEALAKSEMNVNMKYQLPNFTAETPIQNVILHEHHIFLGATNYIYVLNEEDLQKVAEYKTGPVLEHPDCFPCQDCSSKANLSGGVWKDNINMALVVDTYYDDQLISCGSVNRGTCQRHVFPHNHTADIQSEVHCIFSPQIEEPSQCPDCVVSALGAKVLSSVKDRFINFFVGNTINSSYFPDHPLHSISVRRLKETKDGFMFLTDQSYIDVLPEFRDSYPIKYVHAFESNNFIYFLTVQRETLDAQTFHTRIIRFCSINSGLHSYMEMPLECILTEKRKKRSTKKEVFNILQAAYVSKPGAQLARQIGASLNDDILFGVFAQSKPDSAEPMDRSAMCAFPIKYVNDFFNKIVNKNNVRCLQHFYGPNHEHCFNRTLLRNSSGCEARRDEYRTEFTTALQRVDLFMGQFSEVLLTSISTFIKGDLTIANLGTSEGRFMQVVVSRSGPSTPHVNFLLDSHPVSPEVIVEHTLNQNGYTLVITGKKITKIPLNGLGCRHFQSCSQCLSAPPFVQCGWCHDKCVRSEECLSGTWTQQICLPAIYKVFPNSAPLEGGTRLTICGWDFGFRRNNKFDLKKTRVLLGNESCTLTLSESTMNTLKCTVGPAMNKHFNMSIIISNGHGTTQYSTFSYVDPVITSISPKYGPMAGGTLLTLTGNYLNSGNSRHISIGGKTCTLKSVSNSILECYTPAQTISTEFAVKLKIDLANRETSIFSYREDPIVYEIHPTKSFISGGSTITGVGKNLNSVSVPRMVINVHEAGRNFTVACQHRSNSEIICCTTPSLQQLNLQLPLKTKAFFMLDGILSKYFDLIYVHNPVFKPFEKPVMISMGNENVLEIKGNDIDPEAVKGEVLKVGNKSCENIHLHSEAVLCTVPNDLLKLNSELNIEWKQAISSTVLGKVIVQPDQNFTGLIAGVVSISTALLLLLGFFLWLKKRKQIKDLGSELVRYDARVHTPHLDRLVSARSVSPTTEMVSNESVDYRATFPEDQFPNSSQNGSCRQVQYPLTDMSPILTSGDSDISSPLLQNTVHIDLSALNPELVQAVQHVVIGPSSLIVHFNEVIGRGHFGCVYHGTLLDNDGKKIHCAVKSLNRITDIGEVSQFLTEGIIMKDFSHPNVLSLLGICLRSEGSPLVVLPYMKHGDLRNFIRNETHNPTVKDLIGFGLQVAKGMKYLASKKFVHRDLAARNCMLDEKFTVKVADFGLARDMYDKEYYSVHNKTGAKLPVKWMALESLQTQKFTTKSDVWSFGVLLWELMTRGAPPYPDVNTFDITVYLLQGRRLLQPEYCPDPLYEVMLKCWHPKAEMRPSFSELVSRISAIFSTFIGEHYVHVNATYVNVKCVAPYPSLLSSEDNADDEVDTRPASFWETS

- pIC50 (HCT-116 [22]): 5.97
- pIC50 (4T1 [24]): 6.40
- pIC50 (MDA-MB-231 [25]): 5.57
- inhibition [26]: 52%
- inhibition [27]: 65%
- inhibition [28]: 53%
- inhibition [29]: 43%
- inhibition [30]: 92%
- inhibition [31]: 100%
- inhibition [32]: 98%
- inhibition [33]: 95%
Structure (SMILES): CN1CCN(c2ccc(Nc3nc(-n4nc(N)c5ccccc54)c4cc[nH]c4n3)cc2)CC1
- Activity [1]: Non-Toxic
- Activity [2]: Non-Toxic
- Activity (4T1-Luc [3]): Active
- Activity (4T1-Luc [4]): Active
- Activity [5]: 1.4 g
- Activity (MCF7 [6]): Active
- Activity (4T1 [7]): 20.66%
- Activity (4T1 [8]): 2.71%
- Activity (4T1 [9]): 0.6%
- Activity (4T1 [10]): 0.7%
- Activity (MCF7 [11]): 0.38%
- Activity (MCF7 [12]): 17.53%
- Activity (MCF7 [13]): 2.3%
- Activity (MCF7 [14]): 0.26%
- Activity (MCF7 [15]): 14.31%
- Activity (MCF7 [16]): 0.17%
- Activity (MCF7 [17]): 6.55%
- Activity (HEK293): Non-Toxic
- Activity (L02): Non-Toxic
- inhibition (HCT-116 [18]): Active
- inhibition (OVCAR-3): Active
- inhibition (HEY [19]): Active
- inhibition (4T1 [20]): Tde
- inhibition (MDA-MB-231 [21]): Active
- pIC50 (ES-2): < 5.52
- pIC50 (HEY [23]): < 5.52
